Holding throughout (type): in vivo
Assay [1] deals with Plutella xylostella. Put plainly: Plutella xylostella spray test (PLUTMA), comparative. The conditions noted are these: 168 h, cabbage leaves, after 7 days. From the text: Plutella xylostella Spray Test (PLUTMA) Solvent: 14 parts by weight of dimethylformamide Emulsifier: alkylaryl polyglycol ether An appropriate active ingredient formulation is produced by dissolving 1 part by weight of active ingredient with the stated parts by weight of solvent and making the solution up to the desired concentration with water containing an emulsifier concentration of 1000 ppm. Further test concentrations are produced by diluting the formulation with emulsifier-containing water. If the addition of ammonium salts or/and penetrants is required, these are each added in a concentration of 1000 ppm to the formulation solution. Cabbage leaves (Brassica oleracea) are sprayed with an active ingredient formulation of the desired concentration and infected with larvae of the diamondback moth (Plutella xylostella). After 7 days, the kill in % is determined. 100% means that all caterpillars have been killed; 0% means that none of the caterpillars have been killed.

Assay [2] has as its system Spodoptera frugiperda. Description: Spodoptera frugiperda spray test (SPODFR), comparative. The settings on record: 168 h, cotton leaves, after 7 days; for Emax at 0.8 ppm: read-out: % Efficacy. The source says: (§1) Spodoptera frugtiperda—Spray Test (SPODFR) Solvent: 14 parts by weight of dimethylformamide Emulsifier: alkylaryl polyglycol ether An appropriate active ingredient formulation is produced by dissolving 1 part by weight of active ingredient with the stated parts by weight of solvent and making the solution up to the desired concentration with water containing an emulsifier concentration of 1000 ppm. Further test concentrations are produced by diluting the formulation with emulsifier-containing water. If the addition of ammonium salts or/and penetrants is required, these are each added in a concentration of 1000 ppm to the formulation solution. Cotton leaves (Gossypium hirsutum) are sprayed with an active ingredient formulation of the desired concentration and populated with caterpillars of the armyworm (Spodoptera frugiperda). After 7 days, the kill in % is determined. 100% means that all caterpillars have been killed; 0% means that none of the caterpillars have been killed.

The test system of assay [3] is Diabrotica balteata. Description: Diabrotica balteata spray test. The conditions noted are these: Diabrotica balteata, 168 h; 100 g/ha (=32 μg/cavity), wheat grains, after 7 days; read-out: efficacy. The source says:
Diabrotica balteata—Spray Test Solvent: 78 parts by weight of acetone • • 1.5 parts by weight of dimethylformamide Emulsifier: alkylaryl polyglycol ether An appropriate active ingredient formulation is produced by dissolving 1 part by weight of active ingredient with the stated parts by weight of solvent and making the solution up to the desired concentration with water containing an emulsifier concentration of 1000 ppm. Further test concentrations are produced by diluting the formulation with emulsifier-containing water. Pre-swollen wheat grains (Triticum aestivum) are incubated in a multiwell plate filled with agar and a little water for one day (5 seed grains per cavity). The germinated wheat grains are sprayed with an active ingredient formulation of the desired concentration. Subsequently, each cavity is infected with 10-20 beetle larvae of Diabrotica balteata. After 7 days, efficacy in % is determined. 100% means that all wheat plants have grown as in the untreated, uninfected control; 0% means that no wheat plant has grown.

The test system of assay [4] is Heliothis armigera. Put plainly: Heliothis armigera spray test (HELIAR), comparative. The conditions noted are these: Helicoverpa armigera, 168 h, cotton plants, after 7 days.
From the text: as §1, with “Heliothis Armigera Spray Test ([…])” for “Spodoptera frugtiperda—Spray Test (SPODFR)”, “Spray Test ([…]) Solvent: 14” for “frugtiperda—Spray Test (SPODFR) Solvent: 14”, “solution. Cotton plants (Gossypium hirsutum)” for “solution. Cotton leaves (Gossypium hirsutum)”, “desired concentration and, after drying, populated with” for “desired concentration and populated with”, “of the cotton bollworm (Heliothis armigera). After 7” for “of the armyworm (Spodoptera frugiperda). After 7”

In assay [5] the test system is Meloidogyne incognita. Description: Meloidogyne incognita test. The conditions noted are these: Meloidogyne incognita, 336 h, lettuce, gall formation after 14 days, read-out: nematicidal efficacy. The source says:
Meloidogyne incognita Test Solvent: 125.0 parts by weight of acetone An appropriate active ingredient formulation is produced by mixing 1 part by weight of active ingredient with the stated amount of solvent and diluting the concentrate to the desired concentration with water. Vessels are filled with sand, active ingredient solution, an egg/larvae suspension of the southern root-knot nematode (Meloidogyne incognita) and lettuce seeds. The lettuce seeds germinate and the plants develop. The galls develop on the roots. After 14 days, the nematicidal efficacy in % is determined by the formation of galls. 100% means that no galls were found; 0% means that the number of galls on the treated plants corresponds to the untreated control.

The test system of assay [6] is Spodoptera frugiperda. Put plainly: Spodoptera frugiperda spray test (maize leaf discs). The conditions noted are these: Spodoptera frugiperda, foliar, 168 h, after 7 days, read-out: efficacy. From the text: Spodoptera Frusiperda—Spray Test Solvent: 78.0 parts by weight of acetone • • 1.5 parts by weight of dimethylformamide Emulsifier: alkylaryl polyglycol ether An appropriate active ingredient formulation is produced by dissolving 1 part by weight of active ingredient with the stated parts by weight of solvent and making the solution up to the desired concentration with water containing an emulsifier concentration of 1000 ppm. Further test concentrations are produced by diluting the formulation with emulsifier-containing water. Leaf discs of maize (Zea mays) are sprayed with an active ingredient formulation of the desired concentration and, after drying, populated with caterpillars of the fall armyworm (Spodoptera frugiperda). After 7 days, efficacy in % is determined. 100% means that all the caterpillars have been killed; 0% means that no caterpillar has been killed.

Molecules are shown by their SMILES.

The compound `CCS(=O)(=O)c1ccc(-n2ncn(-c3ccc(Br)cc3)c2=O)nc1-c1nc2cc(C(F)(F)C(F)(F)F)nnc2n1C` [Example I-14] showed an efficacy at 0.8 ppm in assay [1] of 100%. In addition, in assay [2], the percent efficacy at tested dose at 0.8 ppm came to 100%. Further, the pest or weed control at 100 g/ha in assay [3] and in assay [6] was 100% each time. The percent efficacy (kill) at fixed dose at 0.8 ppm in assay [4] (0.8 ppm) was 100%. Also, the percent efficacy (kill) at fixed dose at 4 ppm in assay [4] (4 ppm) came to 100%. Besides, in assay [5], the pest or weed control at 20 ppm was 100%.
With `CCS(=O)(=O)c1ccc(-n2ncn(-c3ccc(Br)cc3)c2=O)nc1-c1nc2cc(C(F)(F)F)ccc2n1C` [I-16 known from WO 2017/055185, reference compound], in assay [1], the efficacy at 0.8 ppm was 85%. The Emax at 0.8 ppm was 10% in assay [2] and 20% in assay [4] (0.8 ppm, read-out: % Efficacy). For the same compound, the Emax at 4 ppm in assay [4] (4 ppm, read-out: % Efficacy) was 60%.
Regarding `Cn1c(-c2nc(-n3ncn(-c4ccc(Cl)cc4)c3=O)ccc2CS(C)(=O)=O)nc2cc(C(F)(F)F)cnc21` [I-33 known from WO 2017/055185, reference compound], the efficacy at 0.16 ppm in assay [1] (0.16 ppm) amounted to 15%. For the same compound, the Emax at 0.8 ppm in assay [2] turned out to be 0%.
